Source: paper PMC10580319, “Quantitative Imaging of the Action of vCPP2319, an Antimicrobial Peptide from a Viral Scaffold, against Staphylococcus aureus Biofilms of a Clinical Isolate” (ACS Infectious Diseases, 2023)
Where no end group is shown, it is not given here.

Legend:
in vitro = in vitro ADME, human; conditions: 37 °C
Procedure: vCPP2319 at final concentrations of 50, 100, 200, and 500 μM was incubated with 25% (v/v in H2O) human serum (Sigma-Aldrich) at 37 °C, with gentle swirling. At different time points (0, 1, 5, 10, 30, 60 120, 360, and 1440 min), 120 μL aliquots were taken and treated with 20 μL of 5% perchloric acid (v/v in H2O) for 30 min at 4 °C, to stop the proteolytic reaction. To determine the maximum peptide intensity (100% intact peptide; t0), serum proteins were first precipitated, followed by the addition of the peptide. Controls of serum without peptide and peptide not incubated in serum were also included in the assay. Samples were next centrifuged at 13 000g for 10 min to remove serum proteins. The supernatants were analyzed by reversed-phase HPLC (RP-HPLC) and LC–mass spectrometry (LC-MS). The percentage of intact peptide was calculated by RP-HPLC peak integration, expressed as percent of the amount at t0, and data were fitted to a monoexponential decay model using GraphPad Prism 7.0 to estimate the peptide half-life (t1/2). Analytical RP-HPLC was performed on a LC-20AD instrument (Shimadzu, Kyoto, Japan) equipped with a Luna C18 column (4.6 × 50 mm, 3 μm; Phenomenex, Torrance, CA, USA) using linear gradients of solvent B (0.036% (v/v) trifluoroacetic acid (TFA) in acetonitrile (ACN)) into A (0.045% (v/v) TFA in H2O) over 15 min, at a flow rate of 1 mL/min and UV detection at 220 nm. MS analysis was performed on an LC-MS 2010EV instrument (Shimadzu) fitted with an XBridge C18 column (4.6 mm × 150 mm, 3.5 μm, Waters, Cerdanyola del Valles, Spain), eluting with linear gradients of F (0.08% (v/v) formic acid [FA] in ACN) into E (0.1% (v/v) FA in H2O) over 15 min at 1 mL/min flow rate.[45]
1 - vCPP2319 stability in human serum
Figure S1 – vCPP2319 stability in human serum. Variable concentrations of the peptide were incubated with 25% (v/v in H2O) human serum for 0, 30, 60 and 120 min.
The intact peptide was separated from degradation products by HPLC using a 0 – 95% ACN gradient over 15 min. Afterwards, the percentage of intact peptide (Figure 1C) was calculated by chromatograms peak integration.
(1 picture or pasted object on this page, not shown here)

[1] = test system: S. aureus clinical isolate biofilms; assay: AFM imaging, surface roughness (Rrms); format: cell-based, Staphylococcus aureus; conditions: 4 h; for cell surface roughness (Rrms): untreated 7.4 ± 1.9 nm; for biofilm surface roughness (Rrms): untreated 183 ± 23 nm
Procedure: AFM was used to visualize the topography and morphology of S. aureus biofilms in the absence and presence of vCPP2319. Bacterial suspensions at 1 × 10^6 CFU/mL were incubated in a sterile slide with a removable 12 well silicone chamber (Ibidi) for 24 h at 37 °C. After a washing step with MHB, preformed biofilms were incubated in the absence or presence of vCPP2319 at 25 or 50 μM, for 4 h at 37 °C. Untreated and treated biofilms were then washed once with sterile Milli-Q water and incubated with 0.1% (v/v) glutaraldehyde (Sigma-Aldrich) for 4 h at room temperature. Afterward, each sample was washed twice with sterile Milli-Q water and allowed to dry in air for 1 h at room temperature. AFM images were acquired by using a JPK NanoWizard IV (Berlin, Germany) mounted on a Zeiss Axiovert 200 inverted microscope (Oberkochen, Germany). The AFM head was equipped with a 15 μm z-range linearized piezoelectric scanner and an infrared laser. Images were acquired in air and in intermittent contact mode using uncoated silicon ACL cantilevers from AppNano (Mountain View, CA, USA) with typical resonance frequencies of 200–400 kHz and spring constant of 13–77 N/m. Scan speeds ranged between 0.2 and 0.4 Hz and total scan areas of 5 × 5 μm were imaged. Height and error images were recorded. Height images reflect the topography of the sample. Error images are generated by the deflection of the cantilever as it bends while interacting with the sample and are adequate to improve resolution on the edges of objects imaged by AFM. For each experiment, three different areas were imaged. The surface roughness was defined as the root-mean-square roughness (Rrms)[52] and it was obtained from AFM height images using Gwyddion software version 2.56, based on the following equation after compensation for bacterial curvature: [drawing 3] 3 where N is the number of data points and zi is the height deviation of i-th point from a mean line.[53] For the biofilm surface roughness, Rrms values were calculated from the total imaged area of the biofilm, while for the cell surface roughness, Rrms values were calculated from a line of cells in three different regions of each image of untreated and peptide-treated biofilms. The final Rrms values are the averages of all measurements.

[2] = Dynamic light scattering, self-assembly; format: physicochemical; conditions: DLS, in PBS, preincubated 4 h at 25 °C, 50, 100, 200 and 500 μM, two independent experiments (Figure S2)
Procedure: DLS experiments were carried out on a Zetasizer Nano ZS instrument from Malvern (Worcestershire, UK). vCPP2319, in PBS, was preincubated for 4 h, at 25 °C, at different concentrations (50, 100, 200, and 500 μM). The Z-average hydrodynamic diameter was measured using DLS in particle size analysis mode. For each experiment, a single measurement, corresponding to an autocorrelation curve averaged from a minimum of 20 runs, was performed. All measurements were performed at 25 °C. Data were obtained from two independent experiments.

WRRRYRRWRRRRRWRRRPRR-NH2 [vCPP2319]
half-life at 50 μM (in vitro; 50 μM peptide, 25% (v/v in H2O) human serum, RP-HPLC peak integration, monoexponential decay fit, 95% CI 139–401, read-out: half-life (t1/2) in human serum): 3.45 h | half-life at 100 μM (in vitro; 100 μM peptide, 25% (v/v in H2O) human serum, RP-HPLC peak integration, monoexponential decay fit, 95% CI 234–542, read-out: half-life (t1/2) in human serum): 5.43 h | half-life at 200 μM (in vitro; 200 μM peptide, 25% (v/v in H2O) human serum, RP-HPLC peak integration, monoexponential decay fit, 95% CI 327–490, read-out: half-life (t1/2) in human serum): 6.53 h | half-life at 500 μM (in vitro; 500 μM peptide, 25% (v/v in H2O) human serum, RP-HPLC peak integration, monoexponential decay fit, 95% CI 368–2107, read-out: half-life (t1/2) in human serum): 10.4 h | remaining at 1 h (in vitro; after 1 h incubation, all concentrations studied (50, 100, 200, 500 μM), 25% (v/v) human serum, RP-HPLC, read-out: intact peptide remaining): > 60% | cell surface roughness (Rrms) ([1]; 25 μM): 13 ± 3 nm | biofilm surface roughness (Rrms) ([1]; 25 μM): 303 ± 93 nm | cell surface roughness (Rrms) ([1]; 50 μM): 20 ± 5 nm | biofilm surface roughness (Rrms) ([1]; 50 μM): 429 ± 142 nm | self-assembly [2]: self-assemble into nanoparticles
